How the values were obtained:
Type in all cases: cell-based
[1] = test system: callus derived from scutellum of mature embryos of Oryza sativa cv. Taipei 309; assay: Rice callus transformation (Agrobacterium) with cyanamide selection; conditions: for Calli able to regenerate: 15 mg/l cyanamide
Procedure: Described below is the method used for transformation of callus derived from scutellum of mature embryos of Oryza sativa cv. Taipei 309 using Agrobacterium tumefaciens strain LBA1119-pMOG1295 (harboring the cah-gene) and strain LBA1119-pMOG1253 (control). Sterile dehusked rice seeds were germinated on plates containing Callus Induction Medium (CIM) in the dark at 28° C. (The contents of various media can be found in Table 5). After 3 weeks embryogenic callus derived from the scutellum is isolated and subcultured on the same medium under the same conditions. After 2-3 weeks embryogenic calli were cut in segments of approximately 2-3 mm and cultured plates containing CIM for 4 days. The Agrobacterium strains used in this study harbored a rifampicin selection marker in a C 58 chromosomal background. The construction of the helper strain EHA105 is described by Hood et al. (1993). Agrobacteria were grown for 4 days on plates containing AB medium with antibiotics (rifampicin 20 mg/l, kanamycin 100 mg/l ). Agrobacteria were collected in LIM and the OD600 was adjusted till 1.0-1.5. This suspension was used for cocultivation. Calli were incubated for 10 minutes with the Agrobacterium suspension and dried on sterile filter paper to remove excess of bacteria. Calli were cultured for 48 h on Coculture Medium (COM) plates at 25° C. in the dark. 50 pMOG1295 calli and 20 pMOG1253 calli were cultured per concentration of cyanamid. The following concentrations of cyanamide were used: 0, 15, 30, 60, 100, 150, 200, 300 and 500 mg/l. Hygromycin was applied in a concentration of 50 mg/l. Calli were incubated on First Selection Medium (FSM) plates containing several concentrations of cyanamide or hygromycin at 28° C. in the dark. After 3 weeks the calli were transferred to Embryo Induction Medium I (EIM I) containing the same concentration of cyanamide or hygromycin . After another 3 weeks the calli were subcultured on Embryo Induction Medium II (EIM II) containing the same concentration of cyanamide or an increased concentration of hygromycin (75 mg/l). Calli were transferred to Shoot Induction Medium (SIM) containing the same concentration of cyanamide as during FSM, EIM I, EIM II and were cultured under 12 hours light period (2600 LUX) and 12 hours dark at 28 ° C. Approximately 3 weeks after transferring calli to SIM, shoots were regenerating and excised and placed in jars containing Pre-Greenhouse Medium (PGM). […] At 15 mg/l cyanamide the regeneration frequency of callus from both constructs was the same (pMOG1253 7 out of 16 calli were able to regenerate, pMOG1295 17 out of 44).

[2] = test system: stem segments of Solanum tuberosum cv. Kardal; assay: Transformation of potato stem segments with selection on cyanamide or kanamycin
Procedure: Described below is the method used for transformation of stem segments of Solanum tuberosum cv. Kardal using Agrobacterium tumefaciens. Nodal explants from in vitro grown potato plants were used 3 to 8 weeks after transfer. The plants were grown on Multiplication Medium (MUM) under a 16 h light period (1700 lux) at 24° C. and a 8 h dark period at 21° C. (The various media can be found in Table 2). Stem segments of approximately 5 mm were cut on sterile filter paper soaked with Washing Medium (WAM) and collected in a flask containing Washing Medium. For approximately 300 explants the Washing Medium was replaced by Pre cultivation Medium (PRM). The flasks were cultured at 80 rpm at the same culture conditions as described above for approximately 24 h. All binary vectors used in this study contained the nptII gene as a plant selectable marker and the nptIII as bacterial selectable marker. Plasmid pMOG410 additionally harbored a chimeric gus gene containing an intron (Vancanneyt et al. Mol. Gen. Genet., 220, 245-250, 1990). Plasmid pMOG1156 additionally harbored the gus gene and the chimeric cah gene encoding cyanamide hydratase. Plasmid pMOG874 additionally harbored the cah gene. Plasmids were maintained in E.coli and A. tumefaciens under kanamycin selection.
The Agrobacterium strain used in this study harbored a rifampicin selection marker in a C58 chromosomal background. The construction of the helper strain EHA105 is described by Hood et al. (1993), Transg. Res. 2, 208-218.
Agrobacteria were grown overnight in LB medium with antibiotics (rifampicin 20 mg/l, kanamycin 100 mg/l). The overnight culture was diluted to OD600=0.1 and grown to OD600=0.3 in LB without antibiotics in approximately 2 h time. Bacterial suspensions were centrifuged at 1600×g for 15 minutes at room temperature. Bacteria were resuspended in Washing Medium and used for cocultivation experiments. The Pre cultivation Medium was removed from the flasks and replaced by the Agrobacterium suspension. The flasks were incubated for 20 minutes after which the explants were rinsed twice with Washing Medium. The explants were dried on sterile filter paper and incubated for 48 h on plates containing Cocultivation Medium (COM). Then, the explants were transferred to Post cultivation Medium (POM) and incubated for 72 h. The explants were then transferred to Shoot inducing Medium (SIM) containing several concentrations cyanamide or kanamycin. After two weeks the explants were subcultured on the same medium and approximately three weeks later the explants were placed on Shoot elongation Medium (SEM) containing cyanamide or kanamycin as mentioned above. When shoots were large enough to cut they were transferred to Root inducing Medium (RIM). Shoots that were able to root were then transferred to Root inducing Medium containing 50 mg/l cyanamide or 30 mg/l kanamycin. Simultaneously the transgenic nature of the shoots was determined by testing leaflets of the rooted shoots for expression of the gus gene using a histochemical GUS assay. It appeared that for pMOG1156 rooting of transgenic shoots on medium containing cyanamide was completely correlated with expression of the gus gene.

[3] = test system: root segments of Arabidopsis thaliana cv. C24; assay: Arabidopsis root transformation with selection on cyanamide or kanamycin; conditions: pMOG 1156; treatment kanamycin 50 mg/litre; column headed same conc. as treatment in rooting medium
[4] = pMOG1295, 30 mg/l cyanamide, 50 calli cultured
[5] = pMOG410 (gus-nptII), Cyanamide 20 mg/l during regeneration, 62 inoculated explants
[6] = pMOG410 (gus-nptII), Cyanamide 30 mg/l during regeneration, 62 inoculated explants
[7] = pMOG410 (gus-nptII), Cyanamide 40 mg/l during regeneration, 62 inoculated explants
[8] = pMOG1156 (cah-gus-nptII), Cyanamide 20 mg/l during regeneration, 48 inoculated explants
[9] = pMOG1156 (cah-gus-nptII), Cyanamide 30 mg/l during regeneration, 48 inoculated explants
[10] = pMOG1156 (cah-gus-nptII), Cyanamide 40 mg/l during regeneration, 48 inoculated explants
[11] = pMOG410 (gus-nptII), Kanamycin 50 mg/l during regeneration, 58 inoculated explants
[12] = pMOG1156 (cah-gus-nptII), Kanamycin 50 mg/l during regeneration, 48 inoculated explants

Structure (SMILES): N#CN [Cyanamide]
- Callus formation ([1]; cyanamide 100 mg/l or higher, pMOG1295 and pMOG1253 calli): No calli were formed
- Calli able to regenerate ([1]; pMOG1253 (control)): 7 out of 16
- Calli able to regenerate ([1]; pMOG1295 (cah-gene)): 17 out of 44
- Calli able to be regenerated [1, 4]: 6
- Calli showing green callus development [1, 4]: 11
- No. of excised shoots [2, 5]: 48
- No. of gus + shoots [2, 5]: 0
- No. of rooting shoots ([2]; pMOG410 (gus-nptII), Cyanamide 20 mg/l during regeneration, 62 inoculated explants, rooting medium 50 mg/l cyanamide): 0
- No. of excised shoots [2, 6]: 10
- No. of gus + shoots [2, 6]: 0
- No. of rooting shoots ([2]; pMOG410 (gus-nptII), Cyanamide 30 mg/l during regeneration, 62 inoculated explants, rooting medium 50 mg/l cyanamide): 0
- No. of excised shoots [2, 7]: 0
- No. of gus + shoots [2, 7]: 0
- No. of rooting shoots ([2]; pMOG410 (gus-nptII), Cyanamide 40 mg/l during regeneration, 62 inoculated explants, rooting medium 50 mg/l cyanamide): 0
- No. of excised shoots ([2]; pMOG874 (cah-nptII), Cyanamide 20 mg/l during regeneration, 58 inoculated explants): 81
- No. of rooting shoots ([2]; pMOG874 (cah-nptII), Cyanamide 20 mg/l during regeneration, 58 inoculated explants, rooting medium 50 mg/l cyanamide): 2
- No. of excised shoots ([2]; pMOG874 (cah-nptII), Cyanamide 30 mg/l during regeneration, 58 inoculated explants): 40
- No. of rooting shoots ([2]; pMOG874 (cah-nptII), Cyanamide 30 mg/l during regeneration, 58 inoculated explants, rooting medium 50 mg/l cyanamide): 8
- No. of excised shoots ([2]; pMOG874 (cah-nptII), Cyanamide 40 mg/l during regeneration, 58 inoculated explants): 10
- No. of rooting shoots ([2]; pMOG874 (cah-nptII), Cyanamide 40 mg/l during regeneration, 58 inoculated explants, rooting medium 50 mg/l cyanamide): 1
- No. of excised shoots [2, 8]: 56
- No. of gus + shoots [2, 8]: 6
- No. of rooting shoots ([2]; pMOG1156 (cah-gus-nptII), Cyanamide 20 mg/l during regeneration, 48 inoculated explants, rooting medium 50 mg/l cyanamide): 6
- No. of excised shoots [2, 9]: 50
- No. of gus + shoots [2, 9]: 12
- No. of rooting shoots ([2]; pMOG1156 (cah-gus-nptII), Cyanamide 30 mg/l during regeneration, 48 inoculated explants, rooting medium 50 mg/l cyanamide): 12
- No. of excised shoots [2, 10]: 15
- No. of gus + shoots [2, 10]: 2
- No. of rooting shoots ([2]; pMOG1156 (cah-gus-nptII), Cyanamide 40 mg/l during regeneration, 48 inoculated explants, rooting medium 50 mg/l cyanamide): 2

Structure (SMILES): NC[C@H]1O[C@H](O[C@H]2[C@H](O)[C@@H](O[C@H]3O[C@H](CO)[C@@H](O)[C@H](N)[C@H]3O)[C@H](N)C[C@@H]2N)[C@H](O)[C@@H](O)[C@@H]1O [Kanamycin]
- Percentage of GUS expressing plants (% of plants staining blue) [3]: 100%
- No. of excised shoots [2, 11]: 24
- No. of gus + shoots [2, 11]: 12
- No. of rooting shoots ([2]; pMOG410 (gus-nptII), Kanamycin 50 mg/l during regeneration, 58 inoculated explants, rooting medium 30 mg/l kanamycin): 13
- No. of excised shoots ([2]; pMOG874 (cah-nptII), Kanamycin 50 mg/l during regeneration, 58 inoculated explants): 34
- No. of rooting shoots ([2]; pMOG874 (cah-nptII), Kanamycin 50 mg/l during regeneration, 58 inoculated explants, rooting medium 30 mg/l kanamycin): 26
- No. of excised shoots [2, 12]: 26
- No. of gus + shoots [2, 12]: 16
- No. of rooting shoots ([2]; pMOG1156 (cah-gus-nptII), Kanamycin 50 mg/l during regeneration, 48 inoculated explants, rooting medium 30 mg/l kanamycin): 16
